We go through 21 substances from patent publication US8961986B2, “Peptide composition” (Apitope Technology (Bristol) Limited, priority 2000, dated 2015).

“Also recorded” adds a separate entry of the source.

In assay [1] the test system is MBP-specific T cell clones. Put plainly: T cell clone (TCC) proliferation assay, fine mapping of MBP epitopes. The class given is cell-based, human. The following applies: TCC from MS patients and healthy individuals; proliferative response. The method, then:
MBP-specific T cell lines (TCL) are generated from 8 MS patients and 2 healthy control donors. PBMC from each subject are separated as described above and plated out at 1×10^6 cells/ml in 6-well plates in the presence of MBP (50 μg/ml); a portion of PBMC from each subject is regularly frozen and stored for subsequent restimulations. Seven days later the cells are fed with fresh medium containing 2% IL-2 (Lymphocult-HT; Biotest LTD., Birmingham, UK), and on day 12 of culture all cells are restimulated with antigen, IL-2 and irradiated (2500 Rad) autologous PBMC as a source of antigen presenting cells (APC), at a cell ratio of 1T cell:5 APC. Cells are expanded in IL-2 every 3-4 days, and on day 14 are restimulated with antigen, IL-2 and PBMC, as described above. On the day of the first restimulation cells are examined for specific proliferation to MBP. Briefly, 2×10^4 T cells and 1×10^5 irradiated autologous PBMC are cultured in triplicate, in 96-well round-bottom plates, in the presence of MBP. Cells are cultured for 2 days and pulsed with (^3H)-Thymidine at 0.4 μCi/well during the last 18 hours of the culture. Cells are then harvested as described above, and a TCL is considered to be MBP-specific with a δcpm>1000 and a SI>3.
Following 3 restimulation/expansion cycles TCL are cloned using PHA (Sigma, Poole, Dorset, UK)) in the presence of autologous irradiated PBMC as APC. T cells are plated under limiting dilution conditions at 0.1 cell/well, 0.3 cell/well and 1 cell/well and cultured in Terasaki plates (Nunc International, Costar) with 1×10^4 irradiated PBMC, 5 μg/ml PHA, and 2% IL-2. After 10-12 days, growth-positive wells are expanded onto 96-well round-bottom plates, using 1×10^5 irradiated PBMC, 5 μg/ml PHA and IL-2. Three days later wells are fed with fresh medium containing IL-2, and on day 7 the clones are expanded onto 48-well plates using 5×10^5 irradiated PBMC, PHA and IL-2; at this point clones are tested in proliferation assays for specific responses to MBP. MBP-specific clones are expanded a week later onto 24-well plates, using 1×10^6 irradiated PBMC with PHA or Dynabeads (Dynal, UK) and IL-2. The clones are maintained in 24-well plates using a 7-10 day restimulation/expansion cycle, essentially as described above. The ability of T cell clones (TCC) to recognize the panel of MBP peptides is tested by proliferation assays, as described above.
TCC are generated from 8 MS patients and 2 healthy individuals, and used to clarify the fine specificity of the peptide regions identified in the kinetic response assay. The specificity of each TCC is tested by its proliferative response to the panel of 15-mer peptides. Clone SD:A7 recognised region 1-24, and within this region this TCC responded to a.a. 5-19. Region 30-54 is recognised by 4 clones (MS49:D3, MS49:C8, MS49:A8, MS49:B6) and the epitope within this region is 30-44. […] Five clones (MS43:A7, MS41:B6, MS41:A2, MS41:C6, N5:8) recognize a.a. 83-99 which is contained in region 75-99. One patient produced TCC specific for a.a. 110-124 (MS60:A2, MS60:B3), contained within the 105-129 pool, and another TCC from the same patient is specific to 130-144 (MS60:E1), found within the 120-144 region. Five individuals produce clones which recognize epitopes within the region 135-159: MS60:F7, MS60:D1, MS59:F1 and N5:19 recognizes a.a. 140-154; MS57:A1 is specific to 140-149, and TCC MS17:A3 responds to sequence 130-144. […] Lastly, region 150-170 is recognized by 2 clones specific to a.a. 156-169.

Assay [2] relates to MHC class I or II molecule. The following applies: cited from earlier work.
Assay [3] has as its system fixed Mgar (HLA-DR2+ve) APC presenting to T cell clones. Put plainly: Antigen-presentation assay using an APIPS (fixed APC) with human T cell clones. Type of assay: cell-based. Particulars: for presentation by fixed APC without further processing (apitope): fixed vs live APC, T cell clone proliferation; for apitope within MBP region 125-148: live or p-formaldehyde-fixed Mgar cells, T cell clone MS17:A3, 48 h. The method, then: Presentation of the peptides to T cell clones is measured by proliferation. APC are fixed in 0.5% paraformaldehyde and plated at 1×10^5 cells per well of a 96-well tissue culture plate. T cells clones are plated at 2×10^4 cells per well in the presence of varying concentrations of peptide. After incubation for 48 h at 37° C., proliferation is measured by [^3H] thymidine incorporation over 16-20 h. Results are compared with the ability of T cells to respond to the epitope presented by live APC.
In order to investigate whether various MBP peptides are apitopes, their capacity to be presented to T-cells by fixed APC is investigated. Live or […] Mgar (HLA-DR2+ve) cells are pre-pulsed with the peptide in serum, or serum alone for 3.5 hours. Excess peptide is then removed from cells and the appropriate T cell clone added. The T cell proliferative response is measured by ^3H-thymidine uptake.
(§1) For any given epitope, there may exist one or more apitopes, capable of being presented to APC without further processing. The presence of apitopes within two regions of MBP is investigated by incubating live or p-formaldehyde-fixed Mgar (HLA-DR2+ve) cells are incubated with overlapping peptides in serum from MBP regions 77-100 (FIG. 12) and 125-148 (FIG. 13) or in serum alone. T cells were added and after 72 h (FIG. 12) or after 48 h (FIG. 13) the T cell proliferative response was measured by ^3H-thymidine uptake. For MBP 77-100, the T cells are isolated from a DR2:MBP 82-100 transgenic mouse, whereas for MBP 130-144 the T cell clone MS17:A3 is used.

For assay [4], the system named is draining lymph node cells. Description: Tolerance experiments with 89-101 and 87-96: lymph node cell recall proliferation. Type of assay: in vivo, Mice. As for the experimental part: In order to test this possibility tolerance experiments are performed with the 89-101 and 87-96 peptides (FIGS. 15a and b).
Mice received 200 μg of peptide in PBS or PBS alone intraperitoneally on days −8, −6 and −4 prior to 100 μg of peptide in complete Freunds adjuvant on day 0. After 10 days, draining lymph node cells (6×10^5 per well) were cultured in X-Vivo 15 medium supplemented with 5×10^−5M 2-mercaptoethanol and […] L-glutamine with or without antigen for 72 hours. Cultures were pulsed for the final 16 hours with 0.5 μCi ^3H.thymidine and incorporation measured using a liquid scintillation counter. Results are expressed as means counts per minute for triplicate cultures.

Assay [5] deals with fixed Mgar (HLA-DR2+ve) APC presenting to T cells from DR2:MBP 82-100 transgenic mouse. Put plainly: Antigen-presentation assay using an APIPS (fixed APC) with T cells from DR2:MBP82-100 transgenic mouse. Type of assay: cell-based. Particulars: live or p-formaldehyde-fixed Mgar cells, 72 h. The method, then: Presentation of peptides to T cells isolated from DR2:MBP82-100 transgenic mouse was essentially as described above except APC were plated at 5×10^5 cells per well, T cells were plated at 1×10^5 cells per well, and incubation was allowed to proceed for 72 h prior to the addition of [^3H]-thymidine.
as §1

Assay [6] deals with HLA-DQ6. Put plainly: Antigen presentation assay, HLA-DQ6 transfected L-cells. Type of assay: cell-based, human. The source says:
MBP peptides 30-44, 130-144 and 139-153 were synthesized using L-amino acids and standard F-moc chemistry on an Abimed AMS 422 multiple peptide synthesiser.
L-cells transfected with either HLA-DQ6, HLA-DR2a or HLA-DR2b, or Mgar cells (EACC, Porton Down, UK) which express HLA-DQ, DP and DR were used as APCs.
T-cell clones MS 49:D3 and MS17:A2 were generated from MS patients and clone N5:19 was generated from a normal individual. All three clones were DR2 positive.
Antigen presenting cells were incubated with the various concentrations of peptide and the appropriate T-cells. Proliferation, and therefore activation, of the T-cells was measured by [^3H]-Thymidine incorporation, and expressed as the stimulation index (SI=corrected counts per minute (ccpm) culture containing peptide/ccpm culture without peptide).

In the case of “MBP 60-74: MBP 15-mer peptide 60-74 (QDTAVTDSKRTADPK; UniProt P02686 60-74, looked up, fragment)”, the “T cell clones (TCC) recognising the peptide” value (shortened to “T cell clones”) in assay [1] is listed as “One”.
Regarding “MBP 136-150: MBP peptide identified as apitope in WO 03/064464 (SQKRPSQRHGSKYLA; UniProt P02686 136-150, looked up, fragment)”, the “identified as apitope in WO 03/064464” value in assay [2] was “apitopes”.
Turning to “MBP 156-170: myelin basic protein peptide, residues 156-170; epitope but not apitope (DHARHGFLPRHRDTG)”, the “presentation by fixed APC without further processing (apitope)” value in assay [3] is listed as “an epitope but not an apitope; also recorded: requires further processing for presentation to T cells”.
Turning to “MBP 156-169: MBP a.a. 156-169 recognised by 2 clones; possibly the same as 156-170 (DHARHGFLPRHRDT; UniProt P02686 156-169, looked up, fragment)”, in assay [1], the “T cell clones” value was found to be 2.
“MBP 137-151: MBP peptide identified as apitope in WO 03/064464 (QKRPSQRHGSKYLAT; UniProt P02686 137-151, looked up, fragment)”: the “identified as apitope in WO 03/064464” value in assay [2] is “apitopes”.
“MBP 5-19: MBP 15-mer peptide a.a. 5-19 (AGKRELNAEKASTNS; UniProt P02686 5-19, looked up, fragment)”: in assay [1], the “T cell clones” value is on record as “responded”.
“MBP 140-149: MBP 10-mer peptide 140-149 (PSQRHGSKYL; UniProt P02686 140-149, looked up, fragment)”: the “T cell clones” value in assay [1] is recorded as “specific”.
Regarding “MBP 134-148: MBP peptide identified as apitope in WO 03/064464 (MASQKRPSQRHGSKY; UniProt P02686 134-148, looked up, fragment)”, in assay [2], the “identified as apitope in WO 03/064464” value is listed as “apitopes”.
On to “MBP 87-96: MBP 10-mer peptide 87-96, contains the epitope 89-94 (SRPHLIRLFS; UniProt P02686 87-96, looked up, fragment)”, for which, in assay [4] (200 μg i.p. days -8, -6, -4, priming 87-96 in CFA day 0, lymph node cells day 10), the “effect of peptide as tolerogen on recall responses after priming with 87-96” value is “suppressed recall responses to both 87-96 and 89-101”. In assay [4] (PBS pre-treated mice, lymph node cells), the “in vitro recall response after priming with 87-96” value is given as “strong recall response”.
On to “MBP 138-152: MBP peptide identified as apitope in WO 03/064464 (KRPSQRHGSKYLATA; UniProt P02686 138-152, looked up, fragment)”, for which the “identified as apitope in WO 03/064464” value in assay [2] is listed as “apitopes”.
Turning to QDENPVVHFFKNIVT [MBP 81-95], the “apitope within MBP region 77-100” value in assay [5] is “shown to act as apitopes”.
For the substance SDYKSAHKGFKGVDA [MBP 132-146], the “apitope within MBP region 125-148” value in assay [3] is listed as “shown to act as apitopes”.
Turning to RASDYKSAHKGFKGV [MBP 130-144], the “T cell clones” value in assay [1] was “responds”. In addition, in assay [3], the “presentation by fixed APC without further processing (apitope)” value was “shown to act as apitopes; also recorded: found to be apitopes; also recorded: can be presented by fixed APC without further processing”.
As to DENPVVHFFKNIVTP [MBP 82-96], the “apitope within MBP region 77-100” value in assay [5] was “shown to act as apitopes”.
For ENPVVHFFKNIVTPR [MBP 83-97], the “apitope within MBP region 77-100” value in assay [5] is listed as “shown to act as apitopes”.
Regarding “MBP 110-124: myelin basic protein peptide, residues 110-124 (RPSESDELQTIQEDS)”, in assay [1], the “T cell clones” value is “TCC specific”. The “presentation by fixed APC without further processing (apitope)” value in assay [3] is reported as “shown to act as apitopes; also recorded: found to be apitopes; also recorded: can be presented by fixed APC without further processing”.
Consider DYKSAHKGFKGVDAQ [MBP 133-147], for which the “apitope within MBP region 125-148” value in assay [3] is “shown to act as apitopes”.
Regarding “H-Ala-Ser-Asp-Tyr-Lys-Ser-Ala-His-Lys-Gly-Phe-Lys-Gly-Val-Asp-NH2 (H-ASDYKSAHKGFKGVD-NH2) [MBP 131-145]”, the “apitope within MBP region 125-148” value in assay [3] is recorded as “shown to act as apitopes”. Further, the HLA-DQ6 binding result in assay [6] is recorded as “HLA-DQ6 binding”.
Consider “MBP 135-149: MBP peptide identified as apitope in WO 03/064464 (ASQKRPSQRHGSKYL; UniProt P02686 135-149, looked up, fragment)”, for which the “identified as apitope in WO 03/064464” value in assay [2] is recorded as “apitopes”.
For the substance MPVVHFFKNIVTPRT [MBP 84-98], in assay [5], the “apitope within MBP region 77-100” value is reported as “shown to act as apitopes”.
On to TQDENPVVHFFKNIV [MBP 80-94], for which, in assay [3], the “presentation by fixed APC without further processing (apitope)” value was “found to be apitopes”. Also, in assay [5], the “apitope within MBP region 77-100” value was “shown to act as apitopes”.
